A word on the Ki: it is a dissociation constant, usually derived from enzyme kinetics or from competition with a known ligand. A high value points to weaker binding.

This assay addresses T1, rHIV protease (Human immunodeficiency virus type 1 group M subtype B, UniProt P03366).
T1 construct: the reaction is initiated with purified 0.01-1 mg HIV protease
Put plainly: Inhibition of hydrolysis of a peptide substrate by rHIV protease (HPLC, Dixon analysis). In kind it is biochemical, HIV. To be noted: substrate Ac-Arg-Ala-Ser-Gln-Asn-Tyr-Pro-Val-Val-NH2, MENDT buffer pH 6.0, 37° C.; Ki from Dixon analysis. Here is the method: The data in the following table is representative of inhibition produced by these compounds.
A typical assay contains […] MENDT buffer (50 mM Mes (pH 6.0; 2-(N-morpholino)ethanesulfonic acid), 1 mM EDTA, 1 mM dithiothreitol, 200 mM NaCl, 0.1% Triton X100); 2, 3, or 6 mM N-acenyl-L-arginyl-L-alanyl-L-seryl-L-glutaminyl-L-asparaginyl-L-tyrosyl-L-prolyl-L-valyl-L-valinamide (Ac-Arg-Ala-Ser-Gln-Asn-Tyr-Pro-Val-Val-[…]NH2; Km =7 mM); and micromolar and sub-micromolar concentrations of synthetic compounds. Following incubation at 37° C. for several min, the reaction is initiated with purified 0.01-1 mg HIV protease. Reaction mixtures (37° C.) are quenched after 10-20 min with an equal volume of cold 0.6N trichloroacetic acid, and, following centrifugation to remove precipitated material, peptidolysis products are analyzed by reverse phase HPLC (Beckman Ultrasphere ODS, 4.5 mm×[…]; mobile phase; 5-20% acetonitrile/H2 O--0.1% TFA (15 min), 20% acetonitrile/H2 O--0.1% TFA (5 min) at 1.5 mL/min, detection at 220 nm. The elution positions of Ac-Arg-Ala-Ser-Gln-Asn-Tyr-Pro-Val-Val-NH2 (17-18 min) and Ac-Arg-Ala-Ser-Gln-Asn-Tyr (10-11 min) are confirmed with authentic material. Initial rates of Ac-Arg-Ala-Ser-Gln-Asn-Tyr formation are determined from integration of these peaks, and typically, the inhibitory properties of the synthetic compounds are determined from slope/intercept analysis of a plot of 1/v vs. [inhibitor] (Dixon analysis). Ki values resulting from this type of primary analysis are accurate for competitive inhibitors only, and under conditions in which the Michaelis constant of the substrate used is well determined.
`COC(=O)[C@@H](NC(=O)[C@@H](NC(=O)C(C)N1CCC(C(C)NC(=O)[C@H](C)N)=CC(Cc2ccccc2)C1=O)C(C)C)C(C)C` (stereo partly drawn) [Example 1, 2-[3-benzyl-5-(1-alanylamino-ethyl)-2,3,6,7-tetrahydro-1H-2-oxo-azepin-1-yl]-1-oxo-propyl-valinyl-valine methyl ester] returned a Ki of 100 µM. To `COC(=O)[C@@H](NC(=O)[C@@H](NC(=O)C(C)N1CCC(C(C)NC(=O)[C@H](C)N)=CC(Cc2ccccc2)C1)C(C)C)C(C)C` (stereo partly drawn) [Example 2, 2-[3-benzyl-5-(1-alanylamino-ethyl)-2,3,6,7-tetrahydro-1H-azepin-1-yl]-1-oxo-propyl-valinyl-valine methyl ester] belongs 0.6 µM; to `COC(=O)[C@@H](NC(=O)[C@@H](NC(=O)C(C)N1CCC(C(C)NC(=O)[C@@H](N)Cc2ccccc2)=CC(Cc2ccccc2)C1)C(C)C)C(C)C` (stereo partly drawn) [Example 3, 2-[3-benzyl-5-(1-(phenylalanyl)amino-ethyl)-2,3,6,7-tetrahydro-1H-azepin-1-yl]-1-oxo-propyl-valinyl-valine methyl ester], 3.6 µM.

The values are drawn from patent US5438118A, “HIV protease inhibitors” (SmithKline Beechman Corp., priority 1993, dated 1995).
